# From patent US20200354327A1, “COMPOUND HAVING STAT3 INHIBITORY ACTIVITY AND USE THEREOF” (CYTUS H&B CO., LTD., priority 2017, published 2020)
# What was measured:
# STAT3 [1] = biological target: T1, STAT3 (Homo sapiens, UniProt P40763); assay: Western blot in human malignant breast cancer cell lines; type: cell-based; parameters: endogenous in cells; host or cells: L540, HDLM-2, U87-MG, MDA-MB-231, further human glioblastoma and breast cancer lines
# Description: (§1) Western blot analysis was performed (Jung J E, et al. FASEB J. 19, 1296-1298 (2005)). The cells were washed two times with PBS and suspended in the lysate (50 mM Tris-HCl, pH 7.4, 350 mM NaCl, 1% Triton X-100, 0.5% Nonidet P-40, 10% glycerol, 0.1% SDS, 1 mM EDTA, 1 mM EGTA, 1 mM Na3VO4, 1 mM PMSF, protease and phosphorylation inhibitor) and the cell membrane and nuclear membrane were crushed to lyse the cells. The insoluble protein fraction was removed by centrifugation, and the supernatant was mixed with SDS electrophoresis buffer and electrophoresis (SDS-PAGE) was performed to detect the protein with the desired antibody and to confirm the protein expression level.
# U87-MG cells = assay: Wound healing assay, U87-MG; type: cell-based, human; conditions: 24 hours
# Description: Wound healing assay was performed as previously described (Jung J E, et al. FASEB J. 19, 1296-1298 (2005)). The respective cells were dispensed into a 12-well plate (U87-MG: 5×10^5 cells/ml; MDA-MB-231: 3×10^5 cells/ml) and cultured until the cells proliferated 90% or more. Cells scraped off from the plate with the tip of the pipette were washed two times with PBS. After 24 hours, the proliferation (invasion) of cells at the part from which the cells were had been removed was observed under a microscope, and images were taken.
# STAT3 [2] = assay: Western blot analysis of the 13 selected compounds; type: cell-based; conditions: among the 13 selected compounds
# Description: as §1
# STAT3 [3] = biological target: T1, STAT3; assay: STAT3 activity in various human cancer cell lines with excessively activated or IL-6-induced STAT3; type: cell-based; parameters: endogenous in cells; host or cells: L540, HDLM-2, U87-MG, MDA-MB-231, further human glioblastoma and breast cancer lines
# Description: The human cancer cell lines used in the experiment were U87-MG (human malignant glioblastoma) and MDA-MB-231 (human malignant breast cancer) cell lines, and various kinds of human-derived blood and solid cancer cells including these human cancer cell lines were cultured as previously described (Jung J E, et al. FASEB J. 19, 1296-1298 (2005)). The human Hodgkin lymphoma cancer cell lines L540 and HLDM-2 used in the experiment were obtained from the German Collection of Microorganism and Cell Cultures (DSMZ, Germany) and cultured using RPMI 1640 medium containing 20% FBS in a 5% CO2 incubator at a temperature of 37° C.
# as §1
# MMP-2 = assay: Activity of MMP-2 in U87-MG and MDA-MB-231 cells; type: cell-based, human; conditions: U87-MG and MDA-MB-231, 24 hours
# T1 sequence (P40763 whole entry): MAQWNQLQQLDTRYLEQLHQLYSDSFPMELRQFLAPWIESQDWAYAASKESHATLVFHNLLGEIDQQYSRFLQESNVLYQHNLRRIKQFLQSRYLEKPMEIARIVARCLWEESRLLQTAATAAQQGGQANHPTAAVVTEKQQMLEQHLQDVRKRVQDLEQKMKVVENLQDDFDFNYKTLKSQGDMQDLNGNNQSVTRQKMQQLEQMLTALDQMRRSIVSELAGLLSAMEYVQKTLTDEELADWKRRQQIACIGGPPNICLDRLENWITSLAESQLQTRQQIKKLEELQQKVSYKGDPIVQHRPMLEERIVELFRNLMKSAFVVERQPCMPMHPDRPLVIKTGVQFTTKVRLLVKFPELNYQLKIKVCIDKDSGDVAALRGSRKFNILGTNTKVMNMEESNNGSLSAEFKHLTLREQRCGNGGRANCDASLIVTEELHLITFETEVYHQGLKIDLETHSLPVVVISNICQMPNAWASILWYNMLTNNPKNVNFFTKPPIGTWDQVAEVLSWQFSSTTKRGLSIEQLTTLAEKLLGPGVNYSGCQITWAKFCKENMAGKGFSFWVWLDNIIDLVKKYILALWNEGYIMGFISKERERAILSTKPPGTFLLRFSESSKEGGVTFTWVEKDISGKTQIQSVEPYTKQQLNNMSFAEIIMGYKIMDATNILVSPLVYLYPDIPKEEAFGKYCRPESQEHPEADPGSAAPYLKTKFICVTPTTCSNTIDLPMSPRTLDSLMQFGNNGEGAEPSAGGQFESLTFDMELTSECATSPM
structure (smiles),measurement,setting,value
"Clc1ccc(OCc2noc(C(Cl)(Cl)Cl)n2)c(Cl)c1 [ODZ10117, 3-(2,4-dichloro-phenoxymethyl)-5-trichloromethyl-[1,2,4]oxadiazole]",STAT3 inhibitory efficacy compared with napabucasin,STAT3 [1],STAT3 inhibitory efficacy similar to that of napabucasin at high concentrations
same,phosphorylation of tyrosine 705 of STAT3,STAT3 [1],inhibited the phosphorylation of tyrosine 705 of STAT3 in human malignant breast cancer cell lines in a concentration-dependent manner
same,time to complete inhibition of phosphorylation of STAT3 after treatment,STAT3 [1],≤ 2 h
same,STAT3 inhibitory efficacy compared with known inhibitors,STAT3 [1]; versus NSC628869 and NSC74859,superior STAT3 inhibitory efficacy to NSC628869 and NSC74859
same,cell migration,U87-MG cells,significantly inhibited the migration of these cells
same,STAT3 inhibitory action (Western blot),STAT3 [2],judged to be extremely superior
same,activity of STAT3 induced by IL-6,STAT3 [3]; IL-6 induced,efficiently inhibited the activity of STAT3 induced by IL-6
same,activity of STAT3,STAT3 [3]; various human cancer cell lines in which STAT3 was excessively activated,inhibited the activity of STAT3 in all kinds of cell lines used in the experiment
same,"activity of STAT3 induced by IL-6, compared with known inhibitors",STAT3 [3]; versus NSC628869 and NSC74859,more efficiently inhibited the activity of STAT3 induced by IL-6 than NSC628869 and NSC74859
same,activity of MMP-2,MMP-2,significantly decreased
